# Measurements taken from patent US20230000835A1, “LYSINE-SPECIFIC HISTONE DEMETHYLASE INHIBITORS FOR THE TREATMENT OF MYELOPROLIFERATIVE NEOPLASMS” (Imago Biosciences, Inc., priority 2019, published 2023).
# Structures can show the parent of a compound that is named as a salt.
# Experiments:
# Format in all cases: in vivo, human
# [1] = test system: patients with myelofibrosis; experiment: All patients (Phase 1/2a and 2b): total symptom score at week 12; conditions: all patients at Week 12, n=32
# Procedure: A multi-center, open label, dose-range finding study to assess the safety, optimally effective dosing rules, steady-state pharmacokinetics and pharmacodynamics of Compound 1 orally once daily in patients with myelofibrosis was conducted in a Phase 1/2a study. • Primary objectives were to evaluate, in MF patients the effect of Compound 1 on: Safety and tolerability • Pharmacokinetics (Phase 1/2a only) • Reduction in spleen volume
# This study initiated as a Phase 1/2a study assessing the safety of the starting dose, an 85 day duration of treatment, and the pharmacokinetic and pharmacodynamic effects of Compound 1, with transition to a Phase 2b study incorporating changes supported by the earlier pharmacokinetic and pharmacodynamic studies and safety assessments. This study consisted of two treatment periods: the Initial Treatment Period (ITP), followed by the Additional Treatment Period (ATP). Patients commenced enrolment in the Phase 2b portion of the study, in which the ITP has been extended such that patients were treated daily for 169 days. The ATP, also extended, offered treatment to qualifying patients for an additional 169 days.
# The Myeloproliferative Neoplasm Symptom Assessment Form Total Symptom Score (MPN-SAF TSS) will be completed at Baseline and on each visit day (with the exception of Day 3) from Day 0 through the End of Study (EoS) Visit.
# [2] = test system: inflammatory cytokines and circulating growth factors; experiment: Phase 1/2a clinical study: inflammatory cytokines and circulating growth factors
# Procedure: A multi-center, open-label study evaluating the safety, tolerability, steady-state pharmacokinetics and pharmacodynamics of Compound 1 administered orally once daily in patients with high-risk MF, including primary myelofibrosis (PMF), post-polycythemia vera myelofibrosis (PPV-MF), and post-essential thrombocythemia myelofibrosis (PET-MF) (collectively referred to as ‘MF’) was initiated as a Phase 1/2A study, and was expanded to a Phase 2b study.
# This study was conducted at multiple sites. Up to 50 patients, eighteen years of age or older, with high-risk myelofibrosis were treated. The primary objectives included safety and tolerability, pharmacokinetics (PK; Phase 1/2A only) and spleen volume reduction (SVR). […] Key inclusion criteria included: high- or intermediate-2 risk myelofibrosis; per the Investigator's judgment have failed (refractory or resistant to, inadequately controlled by or intolerant of), or are not a candidate for, available approved therapy including ruxolitinib; platelet count ≥100K/μL; and, circulating blasts ≤10%.
# One strategy to reduce the excess products of megakaryocytes is to target megakaryocyte maturation and function. The effectiveness of a treatment targeting the megakaryocyte may be quantified by measuring the products of megakaryocytes, e.g., platelets in circulation or inflammatory cytokines and growth factors in plasma or serum.
# [3] = test system: patients with high-risk MF; experiment: Phase 1/2a clinical study in myelofibrosis: MPN-SAF / MPN-10 symptom score
# Excerpt: In certain embodiments, said patient-reported survey is the Myeloproliferative Neoplasm Symptom Assessment Form (MPN-SAF). The MPN-SAF is a validated clinical assessment form for the most common symptoms of myeloproliferative neoplasms, in which patients self-reports their score, on a scale of 1-10, of various common symptoms, where 1 is the most favorable or the symptom is absent, and 10 is the least favorable or the symptom is the worst imaginable. See, e.g., Scherber R et al., The Myeloproliferative Neoplasm Symptom Assessment Form (MPN-SAF): International Prospective Validation and Reliability Trial in 402 patients,” Blood 118(2):401-08 (2014). Either the full or abbreviated forms may be administered to the patient. In the abbreviated version, a “total symptom score” (TSS) may be calculated from the ten most clinically relevant symptoms from the 17-item MPN-SAF: worst fatigue, concentration, early satiety, inactivity, night sweats, itching, bone pain, abdominal discomfort, weight loss, and fever. The MPN-SAF TSS thus has a possible range of 0 to 100. Quality of life scores are defined as “clinically deficient” when they rate as at least 4 of 10; “moderate” if symptoms are rated as ≥4 of 10 or ≤6 of 10; and “severe” if symptoms are rated as ≥7 of 10. For patients who complete at least six of these 10 items on the BFI and MPN-SAF, the MPN TSS is computed as the average of the observed items multiplied by 10 to achieve a 0-to-100 scale. See, e.g., Emanuel R M et al., “Myeloproliferative neoplasm (MPN) symptom assessment form total symptom score: prospective international assessment of an abbreviated symptom burden scoring system among patients with MPNs,” J Clin Oncol 30(33):4098-103 (2012). […]
# The Phase 1/2A portion of the study assessed: the safety of the original starting dose, 0.25 mg/kg/d; an 85-day duration of treatment with a subsequent washout period of up to 28 days; and, pharmacokinetic and drug concentration measurements. […]
structure (smiles),measurement,setting,value
"CN1CCN(C(=O)[C@H](CCCN[C@@H]2C[C@H]2c2ccc(F)cc2)NC(=O)c2ccc(-n3ccnn3)cc2)CC1 [Compound 1, N-[(2S)-5-{[(1R, 2S)-2-(4-fluorophenyl)cyclopropyl]amino}-1-(4-methylpiperazin-1-yl)-1-oxopentan-2-yl]-4-(1H-1,2,3-triazol-1-yl)benzamide, bis-tosylate salt]",patients with a reduction of symptom score of ≥50%,[1],25%
same,"levels of CCL3, IL-6, IL-10, IL-33, IL-28A, IFNβ, IFNα, IFNγ",[2]; in the course of treatment,not elevated in any patient
same,change in inflammatory cytokine S100A9,"[2]; week 12, FIG. 4",generally decreased
same,change in inflammatory cytokine RANTES,"[2]; week 12, FIG. 5",generally decreased
same,change in inflammatory cytokine IL-8,"[2]; week 12, FIG. 6",generally decreased
same,change in circulating growth factor VEGF,"[2]; week 12, FIG. 7",generally decreased
same,change in circulating growth factor PDGF-BB,"[2]; week 12, FIG. 8",generally decreased
same,effect on myelofibrosis symptoms,"[3]; evaluable patients N=14, 85-day cycle",profound effect on myelofibrosis symptoms
same,number of patients with improved scores of fatigue,"[3]; of the first 16 patients, within 14 days",8
same,patients with a decrease in symptom score (MPN-10),"[3]; week 24, Phase 1/2a",89%
